Data reported in US7544690B2, “MCH receptor antagonists” (Taisho Pharmaceutical Co., Ltd., priority 2001, dated 2009).
pIC50: −log10 of the molar value. Where a name gives a salt, the structure may show the parent alone.

Target: T1, non-endogenous version of the MCH receptor (MCH-IC3-SST2) (Homo sapiens, UniProt Q99705, A240I/A242V/I247R/L249K/M235V/P241R/Q244S/R234K/R245S/R248K/R250S/R253K/S243G/S246K/T236K/T251E/V239G)
T1 construct: creating a MCH-IC3-SST2 mutation (see); expressed in transfected cells; cultured with 0.5 mg/ml G418, so I infer a stably transfected line
Assay: FLIPR/FDSS6000 functional assay: intracellular Ca2+ changes evoked by MCH
Format: cell-based
Conditions: antagonist activity; 50 nM of MCH; transient changes in [Ca2+]i monitored by FLIPR or FDSS
Excerpt: Subsequently, a functional based assay was used to confirm the lead hits, referred to as FLIPR™ (the Fluorometric Imaging Plate Reader) and FDSS6000™ (Functional Drug Screening System). This assay utilized a non-endogenous version of the MCH receptor, which was created by swapping the third intracellular loop of the MCH receptor with that of the SST2 receptor (see Example 2(B)(2) of patent application Ser. No. 09/826,509).
The FLIPR and FDSS assays are able to detect intracellular Ca^2+ concentration in cells, which can be utilized to assess receptor activation and determine whether a candidate compound is an, for example, antagonist, inverse agonist or agonist to a Gq-coupled receptor. The concentration of free Ca^2+ in the cytosol of any cell is extremely low, whereas its concentration in the extracellular fluid and endoplasmic reticulum (ER) is very high. Thus, there is a large gradient tending to drive Ca^2+ into the cytosol across both the plasma membrane and ER. […]
To confirm the lead hits identified using the [^35S]GTPγS assay, Fluorometric Imaging Plate Reader system was used to allow for rapid, kinetic measurements of intracellular fluorescence in 96 well microplates (or 384 well microplates). Simultaneous measurements of fluorescence in all wells can be made by FLIPR or FDSS6000™, every second with high sensitivity and precision. […]

T1 sequence (Q99705 1-353 with the stated changes): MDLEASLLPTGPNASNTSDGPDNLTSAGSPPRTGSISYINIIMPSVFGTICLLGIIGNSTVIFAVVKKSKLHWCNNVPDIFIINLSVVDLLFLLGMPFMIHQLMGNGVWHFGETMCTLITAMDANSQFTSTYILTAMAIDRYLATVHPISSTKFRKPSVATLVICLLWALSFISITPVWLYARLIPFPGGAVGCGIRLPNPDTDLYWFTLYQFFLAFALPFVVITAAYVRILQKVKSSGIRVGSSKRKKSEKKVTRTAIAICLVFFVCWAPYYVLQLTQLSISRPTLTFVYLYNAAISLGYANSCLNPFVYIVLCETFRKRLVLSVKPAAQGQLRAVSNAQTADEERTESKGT

SMILES	pIC50
CN(C)c1nc(N[C@H]2CC[C@@H](CNCc3ccc(Br)cc3OC(F)(F)F)CC2)nc2ccccc12 [Example 41, cis-N^2-{4-[(4-Bromo-2-trifluoromethoxy-benzylamino)-methyl]-cyclohexyl}-N^4,N^4-dimethyl-quinazoline-2,4-diamine dihydrochloride]	8.22
CN(C)c1nc(N[C@H]2CC[C@@H](CNCc3ccccc3OC(F)(F)F)CC2)nc2ccccc12 [Example 42, cis-N^4,N^4-Dimethyl-N^2-{4-[(2-trifluoromethoxy-benzylamino)-methyl]-cyclohexyl}-quinazoline-2,4-diamine dihydrochloride]	7.72
